{
  "source": "patent US20190202823A1",
  "about": "“N-SULFONYLATED PYRAZOLO[3,4-b]PYRIDIN-6-CARBOXAMIDES AND METHOD OF USE” (AbbVie S.à.r.l., priority 2015, published 2019)",
  "data": [
    {"target": "T1, CFTR ΔF508 (Homo sapiens, UniProt P13569, DEL508-508)", "T1 construct": "bronchial epithelial cells isolated from CF patients homozygous for the CFTR ΔF508 mutation; McGill University; Asterand; University of North Carolina hAEC-CF; host or cells: primary human bronchial epithelial cells from CF patients homozygous for ΔF508", "T1 sequence (P13569 with tags, fused parts or gaps DEL508-508)": "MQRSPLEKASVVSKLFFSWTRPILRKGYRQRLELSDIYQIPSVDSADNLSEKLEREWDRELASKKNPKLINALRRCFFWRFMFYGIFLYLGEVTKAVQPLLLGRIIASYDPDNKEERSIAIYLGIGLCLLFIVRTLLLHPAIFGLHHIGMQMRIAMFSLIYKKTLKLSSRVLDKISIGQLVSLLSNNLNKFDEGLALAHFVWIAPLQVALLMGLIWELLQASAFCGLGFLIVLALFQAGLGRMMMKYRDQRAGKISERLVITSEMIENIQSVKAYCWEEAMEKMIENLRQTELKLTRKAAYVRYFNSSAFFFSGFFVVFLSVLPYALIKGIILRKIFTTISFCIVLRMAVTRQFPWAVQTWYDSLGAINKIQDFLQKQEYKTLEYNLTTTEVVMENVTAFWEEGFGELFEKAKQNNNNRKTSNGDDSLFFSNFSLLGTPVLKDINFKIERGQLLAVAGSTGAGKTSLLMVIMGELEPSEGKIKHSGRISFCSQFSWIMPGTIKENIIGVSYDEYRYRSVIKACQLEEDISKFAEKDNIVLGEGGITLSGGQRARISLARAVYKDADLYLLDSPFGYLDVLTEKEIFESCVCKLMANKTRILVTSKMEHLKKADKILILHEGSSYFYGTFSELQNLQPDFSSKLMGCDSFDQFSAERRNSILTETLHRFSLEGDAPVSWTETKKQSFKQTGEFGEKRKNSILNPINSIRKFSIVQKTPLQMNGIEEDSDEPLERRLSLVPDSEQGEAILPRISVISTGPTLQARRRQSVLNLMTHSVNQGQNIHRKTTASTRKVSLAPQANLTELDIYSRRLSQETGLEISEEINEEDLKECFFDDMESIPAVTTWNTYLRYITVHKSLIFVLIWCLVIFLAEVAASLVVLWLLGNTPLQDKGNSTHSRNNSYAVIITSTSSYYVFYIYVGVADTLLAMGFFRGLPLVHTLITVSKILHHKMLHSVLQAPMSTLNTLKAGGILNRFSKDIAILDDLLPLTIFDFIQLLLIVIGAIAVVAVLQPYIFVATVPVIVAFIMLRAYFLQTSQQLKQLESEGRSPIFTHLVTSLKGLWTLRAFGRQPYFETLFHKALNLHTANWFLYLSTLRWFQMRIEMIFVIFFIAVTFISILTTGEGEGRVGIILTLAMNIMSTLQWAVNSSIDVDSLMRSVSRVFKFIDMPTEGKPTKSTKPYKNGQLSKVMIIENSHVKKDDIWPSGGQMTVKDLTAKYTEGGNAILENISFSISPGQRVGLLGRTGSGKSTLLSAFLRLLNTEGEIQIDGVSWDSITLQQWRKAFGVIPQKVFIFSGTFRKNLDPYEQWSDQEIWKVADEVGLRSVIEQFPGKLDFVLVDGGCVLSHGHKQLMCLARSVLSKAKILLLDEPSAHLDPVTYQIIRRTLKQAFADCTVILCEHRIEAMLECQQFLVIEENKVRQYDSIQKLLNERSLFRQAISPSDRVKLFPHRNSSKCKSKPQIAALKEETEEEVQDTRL", "test": "Chronic TECC assay, primary bronchial epithelial cells from CF patients homozygous for CFTR ΔF508", "type": "cell-based", "details": "read-out: % Activity at 1 μM (AUC**)", "procedure": "(§1) The TECC (Tranepithelial Clamp Circuit, EP-design) assay measures the functionality of the cystic fibrosis Transmembrane Conductance regulator (CFTR) by measuring the short circuit current (Isc) generated over the basolateral and apical membrane of lung epithelial cells. In TECC the transepithelial potential PD and transepithelial resistance (Rt) are measured in an open circuit and transformed to Ieq using Ohm's law. 24 Wells can be measured simultaneously allowing a higher throughput compared to Ussing chambers.\n(§2) For this purpose, bronchial epithelial cells isolated from CF patients homozygous for the CFTR ΔF508 mutation (hAEC-CF, Epithelix, Geneva, Switzerland; McGill University, Montreal, Qc; Asterand, Detroit, Mich.; University of North Carolina, Chapel Hill, N.C.) are plated on type IV collagen-coated Transwell® supports (Costar).\n(§3) For electrophysiological recording of the “chronic” experiments, the human airway epithelia are mounted in the TECC heating plate for electrophysiological measurement and kept at 37° C. The epithelia are bathed in a NaCl-Ringer solution (120 mM NaCl, 25 mM NaHCO3, 1.2 mM CaCl2), 1.2 mM MgCl2, 0.8 mM KH2PO4, 0.8 mM K2HP04, pH 7.4, 5 mM glucose) on both the basolateral and apical sides. Test compounds (corrector, co-corrector, 4-[(2R,4R)-4-({[1-(2,2-difluoro-1,3-benzodioxol-5-yl)cyclopropyl]carbonyl}amino)-7-(difluoromethoxy)-3,4-dihydro-2H-chromen-2-yl]benzoic acid, and potentiator, N-(3-carbamoyl-5,5,7,7-tetramethyl-4,7-dihydro-5H-thieno[2,3-c]pyran-2-yl)-1H-pyrazole-5-carboxamide), are re-added to the recording solution prior to measurement. […] Apical amiloride is used to inhibit the endogenous ENaC currents while forskolin is applied on both apical and basolateral side to stimulate CFTR. Measurements are done during a 20 minute timeframe with recordings every 2 minutes. The increase in Ieq is used as a measure for the increased CFTR activity, EC50 values can be generated by measuring impact of different concentrations of compound on Ieq on primary cells, for this purpose each transwell is treated with a different compound concentration. […] Raw data were normalized to percentage activity values using the equation: 100×(Sample−Negative control)/(Positive control−Negative Control).", "units": {"activity at 1 µM": "%"}, "values": [
      {"smiles": "COCC1CN(C2CCN(c3cc(C(=O)NS(=O)(=O)N(C)C)nc4c3c(C3CCC3)nn4-c3ccc(F)cc3)CC2)CCO1", "note": "(centres unmarked) [Compound 379, 3-cyclobutyl-N-(dimethylsulfamoyl)-1-(4-fluorophenyl)-4-{4-[2-(methoxymethyl)morpholin-4-yl]piperidin-1-yl}-1H-pyrazolo[3,4-b]pyridine-6-carboxamide]", "activity at 1 µM": 370},
      {"smiles": "CC(C)Oc1nn(C2CCCCC2)c2nc(C(=O)NS(C)(=O)=O)cc(-c3ccc(C(=O)N4CC5CNCC5C4)cc3)c12", "note": "(centres unmarked) [Compound 631, 1-cyclohexyl-4-[4-(hexahydropyrrolo[3,4-c]pyrrole-2(1H)-carbonyl)phenyl]-N-(methanesulfonyl)-3-[(propan-2-yl)oxy]-1H-pyrazolo[3,4-b]pyridine-6-carboxamide]", "activity at 1 µM": 157},
      {"smiles": "COCC1CCN(c2cc(C(=O)NS(=O)(=O)CCO)nc3c2c(C2CCC2)nn3-c2ccccc2)CC1", "note": "[Compound 366, 3-cyclobutyl-N-(2-hydroxyethanesulfonyl)-4-[4-(methoxymethyl)piperidin-1-yl]-1-phenyl-1H-pyrazolo[3,4-b]pyridine-6-carboxamide]", "activity at 1 µM": 428},
      {"smiles": "COCC1CCN(c2cc(C(=O)NS(C)(=O)=O)nc3c2c(C2CCC2)nn3-c2ccccc2)CC1", "note": "[Compound 185, 3-cyclobutyl-N-(methanesulfonyl)-4-[4-(methoxymethyl)piperidin-1-yl]-1-phenyl-1H-pyrazolo[3,4-b]pyridine-6-carboxamide]", "activity at 1 µM": 453}
    ]},
    {"target": "T1, CFTR ΔF508", "test": "Chronic TECC assay, primary bronchial epithelial cells from CF patients homozygous for CFTR ΔF508", "type": "cell-based", "details": "read-out: % Activity at 1 μM (Ieq*)", "procedure": "as §1, §2, §3", "units": {"activity at 1 µM": "%"}, "values": [
      {"smiles": "CS(=O)(=O)NC(=O)c1cc(-c2ccc(N3CCC(C#N)CC3)nc2)c2c(C3CCC3)nn(-c3ccccc3)c2n1", "note": "[Compound 71, 4-[6-(4-cyanopiperidin-1-yl)pyridin-3-yl]-3-cyclobutyl-N-(methanesulfonyl)-1-phenyl-H-pyrazolo[3,4-b]pyridine-6-carboxamide]", "activity at 1 µM": 270}
    ]},
    {"target": "T1, CFTR ΔF508", "test": "Chronic TECC assay, primary bronchial epithelial cells from CF patients homozygous for CFTR ΔF508", "type": "cell-based", "details": "read-out: % Activity at 3 μM (AUC**)", "procedure": "as §1, §2, §3", "units": {"activity at 3 µM": "%"}, "values": [
      {"smiles": "CCS(=O)(=O)N(C)C(=O)c1cc(N2CCC(N3CCOCC3)CC2)c2c(C3CCC3)nn(-c3ccccc3)c2n1", "note": "[Compound 658, 3-cyclobutyl-N-(ethanesulfonyl)-N-methyl-4-[4-(morpholin-4-yl)piperidin-1-yl]-1-phenyl-1H-pyrazolo[3,4-b]pyridine-6-carboxamide]", "activity at 3 µM": 260},
      {"smiles": "CS(=O)(=O)NC(=O)c1cc(N2CCC(N3CCCCC3)CC2)c2c(C3CCC3)nn(-c3ccccc3)c2n1", "note": "[Compound 365, 4-([1,4′-bipiperidin]-1′-yl)-3-cyclobutyl-N-(methanesulfonyl)-1-phenyl-1H-pyrazolo[3,4-b]pyridine-6-carboxamide]", "activity at 3 µM": 522},
      {"smiles": "CN(C(=O)c1cc(N2CCC(N3CCOCC3)CC2)c2c(C3CCC3)nn(-c3ccccc3)c2n1)S(C)(=O)=O", "note": "[Compound 656, 3-cyclobutyl-N-(methanesulfonyl)-N-methyl-4-[4-(morpholin-4-yl)piperidin-1-yl]-1-phenyl-1H-pyrazolo[3,4-b]pyridine-6-carboxamide]", "activity at 3 µM": 198},
      {"smiles": "O=C(NS(=O)(=O)N1CCOCC1)c1cc(N2CCC(CN3CCCC3)CC2)c2c(C3CCC3)nn(-c3ccccc3)c2n1", "note": "[Compound 380, 3-cyclobutyl-N-(morpholine-4-sulfonyl)-1-phenyl-4-{4-[(pyrrolidin-1-yl)methyl]piperidin-1-yl}-1H-pyrazolo[3,4-b]pyridine-6-carboxamide]", "activity at 3 µM": 250},
      {"smiles": "CNS(=O)(=O)NC(=O)c1cc(N2CCC(N3CCOCC3)CC2)c2c(C3CCC3)nn(-c3ccc(F)cc3)c2n1", "note": "[Compound 517, 3-cyclobutyl-1-(4-fluorophenyl)-N-(methylsulfamoyl)-4-[4-(morpholin-4-yl)piperidin-1-yl]-H-pyrazolo[3,4-b]pyridine-6-carboxamide]", "activity at 3 µM": 309},
      {"smiles": "O=C(NS(=O)(=O)N1CCOCC1)c1cc(N2CCC(N3CCOCC3)CC2)c2c(C3CCC3)nn(-c3ccccc3)c2n1", "note": "[Compound 383, 3-cyclobutyl-N-(morpholine-4-sulfonyl)-4-[4-(morpholin-4-yl)piperidin-1-yl]-1-phenyl-1H-pyrazolo[3,4-b]pyridine-6-carboxamide]", "activity at 3 µM": 299}
    ]}
  ]
}
